Laboratory results taken from BindingDB's records for PubMed 2385234 (Universit&Eacute, 1990).
pKi: −log10 of the molar value. Values joined by “and” are separate entries in the source; they are usually repeats but may differ in a detail not shown here. Equal values may be shown once.

Legend:
[1] = target: T1, Muscarinic acetylcholine receptor M4 (Mus musculus, UniProt P32211)
T1 sequence (P32211 whole entry): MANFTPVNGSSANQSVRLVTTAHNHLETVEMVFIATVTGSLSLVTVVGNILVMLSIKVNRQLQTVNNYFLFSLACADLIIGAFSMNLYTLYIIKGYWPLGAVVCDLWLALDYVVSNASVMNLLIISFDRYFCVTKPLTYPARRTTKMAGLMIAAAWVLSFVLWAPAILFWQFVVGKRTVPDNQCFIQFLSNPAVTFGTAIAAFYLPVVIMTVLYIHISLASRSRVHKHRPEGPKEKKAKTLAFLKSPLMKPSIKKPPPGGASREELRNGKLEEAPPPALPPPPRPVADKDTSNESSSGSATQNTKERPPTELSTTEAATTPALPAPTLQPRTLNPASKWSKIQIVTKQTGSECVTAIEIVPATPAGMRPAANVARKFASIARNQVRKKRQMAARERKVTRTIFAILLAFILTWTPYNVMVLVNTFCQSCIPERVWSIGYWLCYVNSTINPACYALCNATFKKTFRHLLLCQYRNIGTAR

[2] = target: T2, Muscarinic acetylcholine receptor M4 (Rattus norvegicus, UniProt P08485)
T2 sequence (P08485 whole entry): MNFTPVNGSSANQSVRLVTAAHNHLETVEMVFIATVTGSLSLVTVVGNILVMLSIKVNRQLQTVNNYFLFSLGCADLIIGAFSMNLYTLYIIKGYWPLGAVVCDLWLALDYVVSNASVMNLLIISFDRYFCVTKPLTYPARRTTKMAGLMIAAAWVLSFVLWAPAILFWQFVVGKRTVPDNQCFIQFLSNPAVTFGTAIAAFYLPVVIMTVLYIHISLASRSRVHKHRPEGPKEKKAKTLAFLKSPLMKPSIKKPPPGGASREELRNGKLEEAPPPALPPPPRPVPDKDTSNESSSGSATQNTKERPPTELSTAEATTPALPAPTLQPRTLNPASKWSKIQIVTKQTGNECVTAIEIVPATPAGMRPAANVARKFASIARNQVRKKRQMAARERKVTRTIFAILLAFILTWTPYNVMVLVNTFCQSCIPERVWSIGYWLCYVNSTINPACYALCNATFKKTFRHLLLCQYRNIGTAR

[3] = target: T3, Muscarinic acetylcholine receptor M2 (Rattus norvegicus, UniProt P10980)
T3 sequence (P10980 whole entry): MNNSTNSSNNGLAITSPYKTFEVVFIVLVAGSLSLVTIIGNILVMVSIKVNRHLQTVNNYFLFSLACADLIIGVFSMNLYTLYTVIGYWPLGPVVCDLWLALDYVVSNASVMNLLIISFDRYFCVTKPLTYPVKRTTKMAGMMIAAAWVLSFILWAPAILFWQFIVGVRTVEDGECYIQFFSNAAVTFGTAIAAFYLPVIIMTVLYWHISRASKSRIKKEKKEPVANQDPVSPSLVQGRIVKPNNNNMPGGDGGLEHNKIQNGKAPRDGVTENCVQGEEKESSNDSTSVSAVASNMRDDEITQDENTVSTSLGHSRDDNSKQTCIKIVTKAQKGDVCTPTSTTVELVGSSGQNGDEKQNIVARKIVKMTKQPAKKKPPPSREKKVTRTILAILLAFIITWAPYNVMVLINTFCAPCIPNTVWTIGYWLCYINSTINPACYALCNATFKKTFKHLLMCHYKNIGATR

[4] = target: Muscarinic acetylcholine receptor M3 (Rattus norvegicus, UniProt P08483)
Chain of Muscarinic acetylcholine receptor M3 (P08483 whole entry): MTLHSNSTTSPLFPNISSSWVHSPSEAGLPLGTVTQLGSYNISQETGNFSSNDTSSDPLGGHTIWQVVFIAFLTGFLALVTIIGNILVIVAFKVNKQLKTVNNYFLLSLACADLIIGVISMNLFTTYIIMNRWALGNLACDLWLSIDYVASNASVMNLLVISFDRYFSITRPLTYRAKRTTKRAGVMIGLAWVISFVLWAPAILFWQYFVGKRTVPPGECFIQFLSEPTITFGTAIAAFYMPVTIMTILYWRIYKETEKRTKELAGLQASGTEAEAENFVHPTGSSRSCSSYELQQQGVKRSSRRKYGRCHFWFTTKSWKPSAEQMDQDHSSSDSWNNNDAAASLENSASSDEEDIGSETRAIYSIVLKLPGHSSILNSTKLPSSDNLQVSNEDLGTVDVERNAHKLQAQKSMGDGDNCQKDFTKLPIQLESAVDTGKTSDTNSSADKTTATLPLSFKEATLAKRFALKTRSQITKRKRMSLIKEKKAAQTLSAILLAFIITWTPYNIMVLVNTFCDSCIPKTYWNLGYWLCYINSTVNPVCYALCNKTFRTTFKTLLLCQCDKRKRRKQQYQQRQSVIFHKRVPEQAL

| Structure (SMILES) | pKi [1] | pKi [2] | pKi [3] | pKi [4] |
| --- | --- | --- | --- | --- |
| C[N+]1(C)CCC(OC(=O)C(c2ccccc2)c2ccccc2)CC1 | 8.25 | 8.28 and 8.25 |  |  |
| CN1CCN(CC(=O)N2c3ccccc3C(=O)Nc3cccnc32)CC1 [11-[(4-methylpiperazin-1-yl)acetyl]-5,11-dihydro-6H-pyrido[2,3-b][1,4]benzodiazepin-6-one] | 6.40 |  |  |  |
| CCN(CC)CC1CCCCN1CC(=O)N1c2ccccc2C(=O)Nc2cccnc21 (configuration not stated) [(AF-DX 116) 11-[2-(2-Diethylaminomethyl-piperidin-1-yl)-acetyl]-5,11-dihydro-benzo[e]pyrido[3,2-b][1,4]diazepin-6-one] | 5.80 | 5.77 and 5.82 | 7.13 | 5.32 |
| O[Si](CCCN1CCCCC1)(c1ccccc1)C1CCCCC1 (configuration not stated) [HHSiD] | 7.00 | 7.03 and 6.96 |  | 7.30 |
| C[C@H]1OC(=O)C2C[C@H]3CCCC[C@@H]3[C@@H](/C=C/[C@@H]3CCC[C@H](C)N3C)C21 (some centres not stated) [HIMBACINE] | 7.22 | 7.34 and 7.30 | 7.82 | 6.05 |
| COc1ccccc1CNCCCCCCNCCCCCCCCNCCCCCCNCc1ccccc1OC [METHOCTRAMINE] | 6.80 | 6.89 and 7.00 |  | 5.52 |
